One test relates to HGA agent. The conditions noted are these: reported by Klein et al., Antimicrob. Agents and Chemother. 1997; cited from earlier work.
Test [1] has as its system acute lymphocytic leukemia (ALL). In words: Rifampin treatment of Patient two, end stage marrow failure. It counts as in vivo, human. The settings on record: person, ALL recurrence after marrow transplant, no other treatment given. From the text: No other treatment was available or given. After 2 months of rapid improvement, during which they regained the ability to walk and was discharged from the hospital, they succumbed to an acute apparently unrecognized cytomegalovirus infection.

Test [2] deals with acute myelogenous leukemia (AML). In words: Rifampin treatment of Patient one. It counts as in vivo, human. The procedure:
This was a child with acute myelogenous leukemia (AML), who had blood counts of less than 2000 platelets and less than 300 white cells, persisting for 3 months. They were treated with Rifampin and on day 11 […] white cell count increased to 21,000, with 75% blasts.

Test [3] concerns intracellular organisms in the genus of Ehrlich/Anaplasma. The conditions noted are these: cited from earlier work.

imipenem-cilastatin: in the test with HGA agent, the “activity against the HGA agent” value is recorded as “resistant”.

In the case of `CO[C@H]1/C=C/O[C@@]2(C)Oc3c(C)c(O)c4c(c3C2=O)C2=NC3(CCN(CC(C)C)CC3)NC2=C(NC(=O)/C(C)=C\C=C\[C@H](C)[C@H](O)[C@@H](C)[C@@H](O)[C@@H](C)[C@H](OC(C)=O)[C@@H]1C)C4=O` [rifabutin], in the test with HGA agent, the “activity against the HGA agent” value is “most active, and bactericidal”.

With `CC[C@H]1OC(=O)[C@H](C)[C@@H](O[C@H]2C[C@@](C)(OC)[C@@H](O)[C@H](C)O2)[C@H](C)[C@@H](O[C@@H]2O[C@H](C)C[C@H](N(C)C)[C@H]2O)[C@](C)(O)C[C@@H](C)CN(C)[C@H](C)[C@@H](O)[C@]1(C)O` [azrithromycin], in the test with HGA agent, the “activity against the HGA agent” value is “resistant”.

In the case of `C[C@H]1c2cccc(O)c2C(=O)C2=C(O)[C@]3(O)C(=O)C(C(N)=O)=C(O)[C@@H](N(C)C)[C@@H]3[C@@H](O)[C@@H]21` [doxycycline], the “activity against the HGA agent” value in the test with HGA agent is “most active, and bactericidal”.

As for `O=C(N[C@H](CO)[C@H](O)c1ccc([N+](=O)[O-])cc1)C(Cl)Cl` [chloramphenicol], in the test on HGA agent, the “activity against the HGA agent” value is “weakly active, but not bactericidal”.

As for `O=C(O)c1cn(C2CC2)c2cc(N3CCNCC3)c(F)cc2c1=O` [ciprofloxacin], the “activity against the HGA agent” value in the test with HGA agent is “most active, and bactericidal”.

With Gentamicin, the “activity against the HGA agent” value in the test on HGA agent was “weakly active, but not bactericidal”.

In the case of `N[C@@H]1[C@H]2CN(c3nc4c(cc3F)c(=O)c(C(=O)O)cn4-c3ccc(F)cc3F)C[C@@H]12` [trovafloxacin], in the test on HGA agent, the “activity against the HGA agent” value was “most active, and bactericidal”.

Take Rifampicin [Rifampin]: in the test with HGA agent, the “activity against the HGA agent” value is “most active, and bactericidal”. Moreover, the clinical outcome in test [1] is listed as “remarkable though temporary recovery”. Besides, the platelets entry in test [2] (after treatment, less than 2000 platelets before) is “increased less rapidly”. Moreover, the blasts in test [2] (day 11 of treatment, share of white cell count) is reported as 75%. Also, in test [2] (day 11 of treatment, child, less than 300 white cells for 3 months before), the white cell count was 21,000. Moreover, the “effectiveness against intracellular organisms of genus Ehrlich/Anaplasma” value in test [3] is reported as “particularly effective”.

With `CC[C@H]1OC(=O)[C@H](C)[C@@H](O[C@H]2C[C@@](C)(OC)[C@@H](O)[C@H](C)O2)[C@H](C)[C@@H](O[C@@H]2O[C@H](C)C[C@H](N(C)C)[C@H]2O)[C@](C)(O)C[C@@H](C)C(=O)[C@H](C)[C@@H](O)[C@]1(C)O` [erythromycin], in the test on HGA agent, the “activity against the HGA agent” value is given as “resistant”.

Regarding `CC1(C)S[C@@H]2[C@H](NC(=O)[C@H](N)c3ccccc3)C(=O)N2[C@H]1C(=O)O` [ampicillin], the “activity against the HGA agent” value with HGA agent is given as “resistant”.

With `CO/N=C(\C(=O)N[C@@H]1C(=O)N2C(C(=O)O)=C(CSc3nc(=O)c(O)nn3C)CS[C@H]12)c1csc(N)n1` [cefatriaxone], the “activity against the HGA agent” value with HGA agent was “resistant”.

As to thrmethoprim-sulfamethoxazolem, the “activity against the HGA agent” value with HGA agent was “resistant”.

These data come from patent US20130236898A1, “Anaplasma FAMILY MEMBERS CAUSE A NUMBER OF BLOOD-BORNE DISEASES” (priority 2012, published 2013).
